Data on four compounds can be found in patent publication US20070129336A1, “Camphanylidene and phenylalkyl inositol polyphosphate compounds, compositions, and methods of their use” (Inologic, Inc., priority 2003, published 2007).

pIC50: −log10 of the molar value.

The pIC50 is the IC50 on a negative log10 scale, so that one unit is a factor of ten. Low values mean a large IC50, high ones a small IC50.

One assay has as its system iNOS. As to the kind of experiment: Survey of iNOS inhibition, 2 hr LPS pre-stimulation (nitrite by Greiss reagent). The class given is cell-based, murine. As to conditions: RAW 264.7 cells, LPS/ATP stimulation for two hours, then compound added. On the procedure:
We chose the well characterized LPS stimulation of the murine macrophage cell line RAW 264.7, that produces substantial quantities of NO, to screen inositol polyphosphate compounds in vitro (FIGS. 8-12 and Table 1). This assay system offers a number of opportunities to characterize drug action as pre-transcriptional, post transcriptional, translational or post translational.
Nitrite (NO2^−) accumulation in cell-free supernatant, used as an indicator of NO production, was measured using the modified Greiss reagent (Sigma G4410, St Louis, Mo.). This method was applied as described elsewhere (Martinez, J. et al., “Regulation of prostaglandin E2 production by the superoxide radical and nitric oxide in mouse peritoneal macrophages,” Free Radical Res 32:303-311 (2000)). Briefly, RAW264.7 cells (ATCC, #TIB-71) were maintained in standard tissue culture flasks and with DMEM+10% heat inactivated fetal bovine serum(HI-FBS) (Fetal-bovine serum, Heat-inactivated, Sercare Life Sciences, Oceanside, Calif.). Experiments were initiated by seeding logarithmic cells at […] per well in a 96-well plate in phenol-red free RPMI 1640 (Sigma #R8755)+10% HI-FBS at least four hours before the initiation of the experiment. Cells were exposed to treatment compounds for a minimum of 30 minutes in RPMI-1640 supplemented with 10% fetal calf serum. The compound treatment was removed and inflammatory compounds dissolved in RPMI-1640 supplemented with 10% FBS were applied to the cells. Stimulated cells and appropriate controls were incubated for 18-24 hours before sampling 50 μl of the cell-free supernatant from each well. This sample of supernatant was combined with 25 μl of a nitrate reductase cocktail (0.1 units/ml nitrate reductase enzyme, 5 μM FAD, 30 μM NADPH) and incubated for 30 minutes[…]. To this mixture, 25 μl of LDH cocktail (100 units/ml rabbit muscle lactate dehydrogenase in 0.3 mM sodium pyruvate) was added and the total mixture was incubated another 5-10 min at […]. Greiss reagent was added in 100 μl amounts to each 100 μl experimental sample. Color development proceeded for a minimum of 10 minutes while protected from light. Nitrite levels were compared to a sodium nitrite standard curve freshly prepared in the same medium used for the growth and incubation of the cells and treated with the same enzyme treatments. Color development was recorded by using a Packard Spectracount Plate reader at 540 nm wave length.
It is important to identify the conditions under which the compounds exert their greatest desired effect with the minimal adverse effects. Understanding this relationship is important as signaling molecule mimetics may require special conditions of concentration and duration to generate the desired therapeutic effect. To ascertain whether effects could be observed post-exposure to stimulus, cells were exposed to the LPS/ATP stimulation for two hours at […] after which compound was added.

The subject of the next assay is human CF nasal epithelia. As to the kind of experiment: Blue Dextran volume transport assay. The class given is cell-based. Particulars: CF nasal epithelia monolayers, apical application, 18 hours. The source says:
In normal human airway epithelia, Na+ and Cl− currents (CFTR and Ca2+-activated Cl− currents) contribute to airway surface liquid (ASL) fluid volume regulation depending on signaling equilibria. In contrast, in human CF airway epithelia, Na+ currents through ENaC dominate basal ASL volume regulation accompanied by a relatively minor contribution through Ca2+-activated Cl− currents. The combination of enhanced ENaC currents and transient Ca2+-activated Cl− currents in CF result in an inadequate hydration of the ASL and reduction of mucociliary clearance. […] The resulting reduction in the ability of these monolayers to concentrate BD was taken as a functional indicator of the test compound's involvement in the inhibition of ENaC.
All procedures were performed aseptically. The Blue Dextran (BD) stock solution was prepared with HEPES modified Ringer's buffer (HMRB) (2 mg BD/ml buffer). The compounds tested were solubilized in HMRB containing ˜1 μM BD. Final concentration of vehicle is 0.1% unless otherwise indicated (1:1, DMSO+DMSO containing 5% (w/v) pluronic-F127). The composition of HMRB (pH 7.3, 6.7 when equilibrated with 95%air/5%CO2) is as follows (in mM): 135 NaCl, 1.2 CaCl2, 1.2 MgCl2, 2.4 K2HPO4, 0.6 KH2PO4, 10 HEPES, 10 glucose (˜285 mOsm.). 200 μl of the BD solution was applied to the apical surface and placed in a highly humidified incubator (Forma model 3956 set on “high” humidity) for 18 hours. Basolateral buffer consisted of BEGM (˜300 mOsm.). After 18 hours, 60 μl of the remaining apical buffer was sampled and transferred to a 0.7 ml micro-centrifuge tube for storage until analysis. A standard concentration curve was obtained by determining the optical densities, at 660 nm, of a serial dilution of 10 μM Blue Dextran in HMRB in a 96-well plate using a Packard Spectracount. The [BD] of the samples, which were read on the same plate, was determined by extrapolation from the BD standard curve using Packard I-Smart software. The increase in [BD] from the starting value of 1 μM was taken to be an indication of the magnitude of volume absorption occurring across the monolayer. The rate of absorption was calculated by dividing the change in volume by the duration of the experiment. This value was normalized to a surface area of 1 cm^2, to give μl·cm2 −1·hr −1. All experiments, unless otherwise indicated, were conducted over a period of 18 hours.

A further assay deals with CFHNE cell monolayers. The assay can be described thus: Cystic fibrosis human nasal epithelial cell Ussing chamber assay. Particulars: 2 hour pretreatment, measured 22 hours later. The class given is cell-based. The source says: CF Human Nasal Epithelial (CFHNE) Cell Isolation and Proliferation: Surgically removed nasal polyps were obtained from volunteers in collaboration with Dr. Bonnie Ramsey at Children's Hospital, Seattle and Dr. Ludwig Allegra at the Northwest Nasal Sinus Center, and transported on ice in a sterile container containing a 1:1 mixture of Dulbecco's modification of minimum essential medium Eagle and Ham's F-12 nutrient medium (DMEM/F-12)(Irvine Scientific, Santa Ana, Calif.) supplemented with 100 U/ml penicillin, 0.1 mg/ml streptomycin, 10 mM HEPES, and 2 mM L-glutamine. The tissue samples were aseptically removed from the transport medium and washed (repeated 5X) by suspending in 40 ml of Joklik's modification of minimum essential medium Eagle (JMEM) at 4° C., and centrifuging at 500 RPM. The supernatant was aspirated and discarded. The tissue was then transferred to JMEM containing 200 U/ml penicillin, 0.2 mg/ml streptomycin, 0.1 mg/ml gentamicin sulfate (Clonetics, San Diego, Calif.), and 0.1 μg/ml amphotericin-B (Clonetics), and 0.1% Protease (Sigma), washed an additional 2×, suspended in 15 ml in a 10 cm tissue culture dish, and incubated at 4° C. for 24 hours. The tissue samples were then gently triturated, the connective tissue aseptically removed, and the remaining cell suspension centrifuged at 1000 RPM for 5 min. […] The cells were then counted using a hemocytometer. […]

For the compound `CCC(=O)OCOP(=O)(OCOC(=O)CC)OC1C2OC3(CC4CCC3(C)C4(C)C)OC2C(OP(=O)(OCOC(=O)CC)OCOC(=O)CC)C(OP(=O)(OCOC(=O)CC)OCOC(=O)CC)C1OP(=O)(OCOC(=O)CC)OCOC(=O)CC` (centres unmarked) [INO-4984, 2,3-camphanylidene-myo-inositol 1,4,5,6-tetrakisphosphate octakis (propionoxymethyl) ester], the results for the pIC50 in the assay on iNOS (experiment 1 of three), with iNOS (experiment 2 of three) and in the assay with iNOS (experiment 3 of three) were 4.74, 5.50 and 4.90, respectively. Besides, the “inhibition of fluid absorption” value in the assay on human CF nasal epithelia is “dose dependent inhibition of fluid absorption”.

Consider `CCC(=O)OCOP(=O)(OCOC(=O)CC)OC1C2OC3(CC4CCC3(C)C4(C)C)OC2C(OP(=O)(OCOC(=O)CC)OCOC(=O)CC)C(OP(=O)(OCOC(=O)CC)OCOC(=O)CC)C1OP(=O)(OCOC(=O)CC)OCOC(=O)CC` (centres unmarked) [INO-4996, 1,2-camphanylidene-myo-inositol 3,4,5,6-tetrakisphosphate octakis (propionoxymethyl) ester], for which the pIC50 in the assay on iNOS (experiment 1 of three) is 5.20; in the assay with iNOS (experiment 2 of three), 5.50; in the assay on iNOS (experiment 3 of three) it was 5.20. In addition, the “inhibition of fluid absorption” value with human CF nasal epithelia is reported as “dose dependent inhibition of fluid absorption”.

With `CCCC(=O)OC1C(OCCCc2ccccc2)C(OP(=O)(OCOC(=O)CC)OCOC(=O)CC)C(OP(=O)(OCOC(=O)CC)OCOC(=O)CC)C(OP(=O)(OCOC(=O)CC)OCOC(=O)CC)C1OP(=O)(OCOC(=O)CC)OCOC(=O)CC` (centres unmarked) [INO-4997, 2-O-butyryl-1-O-(3-phenylpropyl)-myo-inositol 3,4,5,6-tetrakisphosphate octakis (propionoxymethyl) ester], in the assay with CFHNE cell monolayers, the “effect on basal Isc” value is listed as “prolonged effect”. For the same compound, the pIC50 in the assay on iNOS (experiment 1 of three) is 4.90; in the assay with iNOS (experiment 2 of three), 4.90; with iNOS (experiment 3 of three) it was 5.05. In the assay with human CF nasal epithelia, the “inhibition of fluid absorption” value is “dose dependent inhibition of fluid absorption”.

On to `N=C(N)NC(=O)c1nc(Cl)c(N)nc1N` [amiloride, reference compound], for which the “inhibition of fluid absorption” value with human CF nasal epithelia was “inhibited fluid absorption measured by the Blue Dextran assay in a dose dependent fashion”.
